Measurements: patent US7981923B2, “Tetralin and indane derivatives and uses thereof” (Roche Palo Alto LLC, priority 2006, dated 2011)

Biological target: T1, recombinant human 5-HT6 receptor (Homo sapiens, UniProt P50406)
T1 construct: expressed in transfected cells; membranes
Test: Radioligand binding, [3H]LSD competition in HEK293 cell membranes
Details: competition for [3H]LSD binding, membranes of HEK293 cells expressing recombinant human 5-HT6 receptor; read-out: pKi for 5-HT6 (converted)
Procedure: The binding activity of compounds of this invention in vitro was determined as follows. Duplicate determinations of 5-HT6 ligand affinity were made by competing for binding of [^3H]LSD in cell membranes derived from HEK293 cells stably expressing recombinant human 5-HT6 receptor. Duplicate determinations of 5-HT2A ligand affinity were made by competing for binding of [^3H]Ketanserin (3-(2-(4-(4-fluorobenzoyl)piperidinol)ethyl)-2,4(1H,3H)-quinazolinedione) in cell membranes derived from CHO-K1 cells stably expressing recombinant human 5-HT2A receptor. Membranes were prepared from HEK 293 cell lines by the method described by Monsma et al., Molecular Pharmacology, Vol. 43 pp. 320-327 (1993), and from CHO-K1 cell lines as described by Bonhaus et al., Br J Pharmacol. June; 115 (4):622-8 (1995).
For estimation of affinity at the 5-HT2A receptor all determinations were made in assay buffer containing 50 mM Tris-HCl, 5 mM ascorbic acid, 4 mM CaCl2, pH 7.4 at 32° C., in a 250 microliter reaction volume.
Assay tubes containing [^3H] […] LSD or [^3H]Ketanserin were determined as radioactive counts per minute using Packard TopCount.
Displacement of [^3H]LSD or [^3H]Ketanserin from the binding sites was quantified by fitting concentration-binding data to a 4-parameter logistic equation: […]

T1 sequence (P50406 whole entry): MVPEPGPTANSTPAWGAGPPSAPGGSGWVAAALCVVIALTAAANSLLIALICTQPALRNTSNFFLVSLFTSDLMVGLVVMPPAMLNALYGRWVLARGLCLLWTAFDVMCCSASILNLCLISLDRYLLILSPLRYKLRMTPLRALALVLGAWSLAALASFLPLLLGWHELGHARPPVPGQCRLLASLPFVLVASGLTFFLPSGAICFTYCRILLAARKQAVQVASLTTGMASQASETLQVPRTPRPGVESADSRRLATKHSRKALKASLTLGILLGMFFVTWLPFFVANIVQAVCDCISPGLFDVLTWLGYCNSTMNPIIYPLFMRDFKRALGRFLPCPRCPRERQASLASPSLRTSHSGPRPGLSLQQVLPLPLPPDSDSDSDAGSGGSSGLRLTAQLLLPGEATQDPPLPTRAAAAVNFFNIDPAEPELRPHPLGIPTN

Ki: ~0.1 nM
SMILES: NC[C@@H]1CCCc2cc(S(=O)(=O)c3cccc(F)c3)cc(F)c21 (stereo in doubt) [C-[8-Fluoro-6-(3-fluoro-benzenesulfonyl)-1,2,3,4-tetrahydro-naphthalen-1-yl]-methylamine]
